This note sets out measurements from patent publication US20250032476A1, “ALPHA-2A ADRENERGIC RECEPTOR MODULATORS AND USES THEREOF” (The Regents of the University of California, priority 2021, published 2025).

The target in assay [1] is T1, human α2AAR (Homo sapiens (Human), UniProt P08913). Briefly: α2AAR internalization assay with rGFP-CAAX and rGFP-FYVE biosensors. It is filed as cell-based. The settings on record: α2AAR-RlucII/rGFP-CAAX biosensor.
Procedure: Human α2AAR internalization was evaluated by measuring the disappearance of hα2AAR-RlucII from the plasma membrane labeled with rGFP-CAAX and its relocalization in endosome labeled with rGFP-FYVE (39).
For concentration-response curves, BRET signal was measured after 30 min incubation. Plates were read on a Spark microplate reader (Tecan; Mannedorf, Switzerland) using the BRET2 manufacturer settings.
A further assay is described as follows: analgesia in vivo. The note with it: result in words, Table 6.
In assay [2] the target is T1, human α2AAR. Briefly: β-arrestin-2 recruitment, BRET biosensor assay in HEK293T cells. The settings on record: HEK-293T.
Procedure: Bioluminescense resonance energy transfer. G protein mediated activation of human α2AAR and D2long was monitored with Gαi1-RLucII (71, 72) together with Gβ1 and Gγ1-GFP10. Arrestin recruitment was performed by enhanced bystander BRET using CAAX-rGFP and β-arrestin-2-RLucII as biosensors (all biosensors are provided from M. Bouvier, Université de Montréal, Canada) (71, 73) in the presence of GRK2 as described (66, 74). In brief, HEK293T cells were transfected with a total amount of 3.3 μg DNA per 10^6 cells using linear polyethyleneimine (PEI, Polysciences, 3:1 PEI:DNA ratio) and transferred into 96-well half-area plates (Greiner, Frickenhausen, Germany) at a density of 10,000 cells per well and incubated for 48 hrs. Medium was exchanged with PBS (Hank's balanced salt solution) and cells were stimulated with ligands at 37° C. for 10 min for Gαi stimulation or arrestin recruitment, respectively.
The test system of another assay is SNI mice. Briefly: Spared-nerve injury (SNI) model of neuropathic pain, von Frey mechanical thresholds. Format: in vivo. How it is done: Spared-nerve injury (SNI) model of neuropathic pain. Under isoflurane anesthesia, two of the three branches of the sciatic nerve were ligated and transected distally, leaving the sural nerve intact. Behavior was tested 7 to 14 days after injury and in situ hybridization was performed one week post-injury.

T1 sequence (P08913 whole entry): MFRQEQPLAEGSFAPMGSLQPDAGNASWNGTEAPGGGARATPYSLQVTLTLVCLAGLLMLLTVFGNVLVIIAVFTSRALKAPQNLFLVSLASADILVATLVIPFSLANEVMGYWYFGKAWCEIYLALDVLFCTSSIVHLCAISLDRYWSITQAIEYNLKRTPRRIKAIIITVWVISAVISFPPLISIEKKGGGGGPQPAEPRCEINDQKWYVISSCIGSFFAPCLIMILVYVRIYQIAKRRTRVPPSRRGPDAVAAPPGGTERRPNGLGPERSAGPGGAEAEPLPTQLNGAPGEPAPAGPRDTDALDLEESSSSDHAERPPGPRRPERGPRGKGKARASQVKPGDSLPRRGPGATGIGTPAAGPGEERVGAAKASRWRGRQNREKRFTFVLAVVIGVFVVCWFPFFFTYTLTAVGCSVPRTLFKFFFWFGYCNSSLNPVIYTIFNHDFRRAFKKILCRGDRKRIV

In the case of `Fc1cccc2c(Nc3ccncc3)cccc12` [Compound 7075, N-(5-fluoronaphthalen-1-yl)pyridin-4-amine], the “Disappearance of α2AAR from the plasma membrane (internalization)” value on human α2AAR [1] was “no effect”. For the same compound, the analgesic in vivo entry in the assay “analgesia in vivo” is recorded as “analgesic in vivo”. At human α2AAR [2] (read-out: β-Arr-2 Emax @ 0.1 mM), the Emax stood at 10%. Moreover, the maximal effect (Emax) at 100 µM on human α2AAR [2] (read-out: β-arrestin-2 Emax @ 0.1 mM) was 10 ± 7%. The “Effect of atipamezole on the agonist's effect in SNI mice” value with SNI mice (atipamezole 2 mg/kg, 15 minutes prior) is listed as “reversed by atipamezole”. Moreover, in the assay with SNI mice (systemic injection), the “Mechanical thresholds / anti-allodynic effect in SNI mice” value is listed as “exhibited anti-allodynic effects” and the “Reversal of mechanical hypersensitivity in SNI mice” value is listed as “completely reversed the mechanical hypersensitivity”.
